From patent US20180258100A1, “RAPAMYCIN ANALOGS SHOWING IMPROVED mTORC1 SPECIFICITY” (priority 2015, published 2018)
Several values for one entry are separate records, joined by “and”; a condition that tells them apart may be missing. Identical values can stand only once.

Tests used:
[1] = target: T1, mTORC2 (Homo sapiens, UniProt P42345+P62942); assay: AlphaLISA SureFire Akt 1/2/3 in PC3 cells, phosphorylation of Akt at Ser473 (mTORC2 inhibition); assay type: cell-based
T1 construct: endogenous in cells; host or cells: PC3 cells
T1 sequence (P62942 2-108 limits assumed, other chains not shown): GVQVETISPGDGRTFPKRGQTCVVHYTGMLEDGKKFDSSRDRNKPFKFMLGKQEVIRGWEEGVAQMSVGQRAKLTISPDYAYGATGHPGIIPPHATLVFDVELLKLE
Experimental: mTORC1 inhibition was determined using the AlphaLISA® SureFire® kit (Perkin Elmer) which measures phosphorylation of S6 kinase at positions Ser^240 and Ser^244. mTORC2 inhibition was determined by the AlphaLISA® SureFire® kit for Akt 1/2/3, which determines phospholyltation of Akt protein at position Ser^473. Cells from plates were lysed and incubated for 10 min at room temperature while shaking. Cell lysates were incubated with acceptor mix for 2 hours at room temperature; the donor mix was then added and the resulting solution was incubated for 2 hours at room temperature. AlphaLISA® signal was determined on a Fusion-Alpha FP HT (Perkin Elmer). Percent inhibition was calculated by comparison to the highest inhibition value obtained in the response-concentration curve. IC50s were calculated using Prism software. […]

[2] = target: mTORC2 (Mus musculus, UniProt P26883+Q9JLN9); assay: Western blot of mouse tissues after 3 weeks i.p. dosing, mTORC2 (P-AKT/Total AKT); assay type: in vivo, female C57BL/6J mice; conditions: soleus muscle, 12 mg/kg i.p. every other day for 3 weeks
Chain of mTORC2 (Mus musculus, UniProt P26883+Q9JLN9) (P26883 2-108 limits assumed, other chains not shown): as the sequence (P62942 2-108 limits assumed, other chains not shown) above, with M49T, T75I, P78S counted along it
Experimental: (§1) 10-week old female C57BL/6J mice were given intraperitoneal injections of 8 mg/kg rapamycin (LC laboratories), 12 mg/kg compound 390 or vehicle every other day for three weeks (N=5 mice/group), such as to mimic chronic exposure conditions. 24 hours after the last injection, tissues were dissected from the mice and immediately frozen in liquid nitrogen. The tissues were homogenized using the Omni TH homogenizer (Omni International) on ice in RIPA buffer and then centrifuged at 13,000 rpm for 15 minutes at 4° C. The supernatants were collected and protein concentration was determined using the DC protein assay (Biorad).
(§2) The mTORC1/2 inhibition was determined by Western blots. Equal amounts of protein were resolved by SDS-PAGE and transferred to nitrocellulose membrane using the Invitrogen Nu-Page system. The membranes were blocked for 1 h in 5% milk and incubated overnight in the appropriate antibodies. The following day, blots were washed 3 times in TBST, incubated for 2 h with secondary antibodies (donkey anti rabbit hrp conjugated), and finally washed an additional 3 times in TBST. ECL Prime (Amersham) was used to detect the proteins of interest and ImageJ software was used to quantify the band intensity of the Western blots.

[3] = target: T2, mTORC1 (Homo sapiens, UniProt P42345+P62942); assay: AlphaLISA SureFire in PC3 cells, phosphorylation of S6 at Ser240/Ser244 (mTORC1 inhibition, selectivity ratios); assay type: cell-based
T2 construct: endogenous in cells; host or cells: PC3 cells
Experimental: PC3 cells were maintained in F12K media (ATCC/GIBCO, Cat# ATCC 30-2004) supplemented with additional 10% FBS (Gemini, cat#100-106), 1% Penicillin/Streptomycin (Life Technologies, cat #15140-122), and 2 mM L-Glutamine (Life Technologies, cat#25030) and cultured at 37° C. For AlphaLISA experiments, cells were seeded in 96-well plates for 24 hours and treated at various concentrations of compound (from approx. 8 fM to 10 μM) for 24 hours. Cells were harvested by lysis in the buffer supplied with the AlphaLISA kit. […] Cells from plates were lysed and incubated for 10 min at room temperature while shaking. Cell lysates were incubated with acceptor mix for 2 hours at room temperature; the donor mix was then added and the resulting solution was incubated for 2 hours at room temperature. AlphaLISA® signal was determined on a Fusion-Alpha FP HT (Perkin Elmer). Percent inhibition was calculated by comparison to the highest inhibition value obtained in the response-concentration curve. IC50s were calculated using Prism software.

[4] = target: mTORC2 complex (Mus musculus, UniProt P26883+Q9JLN9); assay: mTORC2 assembly: immunoprecipitation of Rictor from liver and immunoblotting for mTOR; assay type: in vivo, male C57BL/6J mice; conditions: liver, four weeks; rapamycin 8 mg/kg, compound 390 12 mg/kg i.p. every other day
Chain of mTORC2 complex (P26883 2-108 limits assumed, other chains not shown): as the sequence (P62942 2-108 limits assumed, other chains not shown) above, with M49T, T75I, P78S counted along it
Experimental: (§3) Fortyfive C57BL/6J male mice, housed three per cage, were weighed and their body composition was measured with an EchoMRI 3-in-1 system. […] Mice received every-other-day injections of either vehicle, rapamycin (8 mg/kg), or compound 390 (12 mg/kg). A glucose tolerance test was performed after 2 weeks (morning after the 8th injection). A pyruvate tolerance test was performed after 3 weeks. Glucose stimulated insulin secretion assay was performed after 4 weeks and additional blood was collected for whole blood analysis. Body composition was measured on day −2 and day 31.

[5] = target: T3, mTORC1 (Mus musculus, UniProt P26883+Q9JLN9); assay: Western blot of mouse tissues after 3 weeks i.p. dosing, mTORC1 (P-S6/total S6); assay type: in vivo, female C57BL/6J mice; conditions: 12 mg/kg i.p. every other day for 3 weeks
Experimental: as §1, §2

[6] = target: T3, mTORC1; assay: Immunoblot of liver, muscle and brain after four weeks, mTORC1; assay type: in vivo, male C57BL/6J mice; conditions: rapamycin 8 mg/kg, compound 390 12 mg/kg i.p. every other day
Experimental: as §3
For western blotting, antibodies to phospho-Akt S473 (4060), Akt (4691), phospho-S6 ribosomal protein (2215), S6 ribosomal protein (2217), phospho-4E-BP1 S65 (9451) and 4E-BP1 (9452) were from Cell Signaling Technology.
Cells and tissue samples were lysed in cold RIPA buffer supplemented with phosphatase inhibitor and protease inhibitor cocktail tablets (PI88669, Fisher Scientific). Tissues were lysed in RIPA buffer using a FastPrep 24 (M.P. Biomedicals) with bead-beating tubes and ceramic beads (Mo-Bio Laboratories), and then centrifuged. Protein concentration was determined by Bradford assay (Pierce Biotechnology). Protein was separated by sodium dodecylsulphate-polyacrylamide gel electrophoresis (SDS-PAGE) on 8, 10, or 16% resolving gels (Life Technologies).

[7] = Glucose tolerance test after 2 weeks of chronic dosing; assay type: in vivo, male C57BL/6J mice; conditions: rapamycin 8 mg/kg, compound 390 12 mg/kg every other day, male mice
Experimental: as §3
Mice were fasted overnight for 16 hours and then injected with either glucose (1 g/kg) or pyruvate (2 g/kg) intraperitoneally. For glucose and pyruvate tolerance tests, small blood samples were taken from a tail vein nick at time intervals and read using a Bayer Contour blood glucose meter and test strips. For glucose-stimulated insulin secretion, blood glucose levels were read using a glucometer and then 50 μL of blood was collected into a heparinized tube immediately prior to and 15 minutes following glucose administration. Insulin levels were determined using a Mouse Insulin ELISA kit (Crystal Chem).

[8] = Plasma lipid levels after chronic i.p. dosing; assay type: in vivo, female C57BL/6J mice; conditions: rapamycin 8 mg/kg, compound 390 12 mg/kg i.p. every other day; versus vehicle
Experimental: as §1
Plasma lipid levels were determined at the end of the three-week exposure. Free fatty acids in the serum were measured by the HR Series NEFA-HR(2) (Wako Diagnostics, Richmond, Va.). Triglycerides and cholesterol in serum were measured by Triglycerides Liquicolor Test and Cholesterol Liquicolor Test (Stanbio laboratory, Boerne, Tex.), respectively.

[9] = Glucose challenge response; assay type: in vivo, female C57BL/6J mice; conditions: 2 mg/kg glucose after 1 week; rapamycin 8 mg/kg, compound 390 12 mg/kg i.p. every other day
Experimental: as §1
Steady state glucose levels were determined after one week from study initiation using a Bayer Contour blood glucose meter and test strips from small blood samples, which were withdrawn from a tail vein nick. […]

[10] = heart, visceral fat, pancreas, kidney

In the case of `CO[C@H]1CC2CC[C@@H](C)[C@@](O)(O2)C(=O)C(=O)N2CCCC[C@H]2C(=O)O[C@H]([C@@H](C)CC2CCC(O)CC2)CC(=O)[C@@H](C)/C=C(\C)[C@H](O)[C@H](O)C(=O)[C@@H](C)C[C@H](C)/C=C/C=C/C=C/1C` (stereo partly drawn) [compound 390, 27-O-Desmethyl-39-Desmethoxy Rapamycin], the “lower inhibition of mTORC2 compared to rapamycin” value [1] is reported as ~150 fold, the “mTORC2 inhibition in tissues” value ([2]; gastrocnemius muscle, lung, liver) is reported as “very weak” and the “change of mTORC2 activity in tissues” value [2, 10] is reported as “small upregulation of mTORC2 activity”. The “mTORC2 inhibition in tissues” value [2, 10] was “no inhibition of mTORC2”, the “improvement of mTORC1 over mTORC2 selectivity compared to rapamycin (average)” value ([3]; AlphaLISA IC50 ratios) was 51 fold and the “improvement of mTORC1 over mTORC2 selectivity compared to rapamycin (range)” value ([3]; AlphaLISA IC50 ratios) was 52-63 fold. The “Average IC50^mTORC2/IC50^mTORC1” value ([3]; average of four replicates, 24 h) was 429.90, the “IC50^mTORC2/IC50^mTORC1” value ([3]; single replicates #1-#4 (N = 3 each), mTORC2 IC50 of the measurement divided by average mTORC1 IC50, 24 h, listed as nID390) was 477.07 and 533.79 and 445.85 and 262.89 and the “integrity of hepatic mTORC2 complex assembly” value [4] was “no effect upon hepatic mTORC2 assembly”. The “mTORC1 inhibition in tissues” value ([5]; soleus muscle and liver) was “only partially inhibits mTORC1”, the “mTORC1 inhibition in tissues” value ([5]; visceral fat, gastrocnemius muscle, pancreas, lung and kidney) was “strong inhibition of mTORC1” and the “mTORC1 inhibition in liver, muscle and brain” value [6] was “significantly inhibits mTORC1 at approximately the same level as rapamycin”. The glucose tolerance test ([7]; after 2 weeks) was “identical to the vehicle-receiving animals”, the fasting hyperglycemia ([7]; chronic dosing) was “does not cause” and the plasma cholesterol [8] was “did not produce any changes”. For the same molecule, the “plasma free fatty acids” value [8] was “did not produce any changes”, the plasma triglycerides [8] was “did not produce any changes” and the “glucose response after glucose challenge (glucose intolerance)” value [9] was “indistinguishable from the vehicle-receiving control animals”.
